This is an account of results in ChEMBL document CHEMBL1201862, “PubChem BioAssay data set” (2004).

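Test compounds were applied to cells in 96-well plates for 48 hours at 5 doses. GI50 = concentration required for 50% inhibition of growth.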 The source made the active and inactive calls. Cut-off read from the data, not from the text of the source: active = GI50 up to about 1.1 µM and inactive = higher.

Among the test systems are A498; A549; EKVX; HCT-15; IGROV-1; K562; M14; NCI-H460; OVCAR-4; OVCAR-8; SF-268; SF-295; SK-MEL-2; SN12C; SR; TK-10; U-251; UACC-62; HOP-62; RPMI-8226.
Common to all, as to assay: NCI-60 cell line screen, 48 h

As to `CC1(C)CC(=O)c2[nH]c3ccccc3c2CC(=O)NCCc2cn1cn2`, the GI50 with A498 was > 100 µM (inactive); with A549, > 100 µM (inactive); with EKVX, > 100 µM (inactive); in the assay with HCT-15 it was more than 100 µM; with IGROV-1 it was > 100 µM (inactive); in the assay with K562, > 100 µM (inactive). Also, the GI50 was > 100 µM (inactive) in the assay on M14; > 100 µM (inactive) in the assay with NCI-H460; > 100 µM (inactive) in the assay with OVCAR-4; > 100 µM (inactive) in the assay on OVCAR-8; > 100 µM (inactive) in the assay on SF-268; 82.8 µM (inactive) in the assay on SF-295. For the same compound, the GI50 in the assay with SK-MEL-2 is > 100 µM (inactive); in the assay on SN12C, > 100 µM (inactive); in the assay on SR, > 100 µM (inactive); in the assay with TK-10 it was > 100 µM (inactive); with U-251, 56.6 µM (inactive); in the assay on UACC-62 it was > 100 µM (inactive).
Consider `Oc1ccc(I)c2cccnc12`, for which the GI50 in the assay on A498 is 32 µM (inactive); in the assay with A549, 5.52 µM (inactive); in the assay with EKVX, 9.27 µM (inactive); in the assay with HCT-15, 4.19 µM; in the assay with HOP-62, 14.8 µM (inactive); with IGROV-1 it was 8.18 µM (inactive). Also, the GI50 is 2.93 µM (inactive) in the assay on K562; 10.4 µM (inactive) with M14; 3.95 µM (inactive) in the assay with NCI-H460; 26.4 µM (inactive) in the assay with OVCAR-4; 3.66 µM (inactive) in the assay on OVCAR-8; 2.89 µM (inactive) with RPMI-8226. For the same compound, the GI50 was 7.45 µM (inactive) in the assay on SF-268; 3.48 µM (inactive) in the assay with SF-295; 11.9 µM (inactive) in the assay on SK-MEL-2; 13.4 µM (inactive) with SN12C; 3.35 µM (inactive) in the assay on SR; 37.2 µM (inactive) with TK-10. For the same compound, in the assay with U-251, the GI50 is 6.78 µM (inactive).
Turning to `C/C=C/[C@H]1O[C@@](OC)([C@@H](C)[C@H](O)[C@H](C)[C@H]2OC(=O)/C(OC)=C/C(C)=C/[C@@H](C)[C@@H](O)[C@@H](C)[C@@H](O)[C@H](C)C/C(C)=C/C=C/[C@@H]2OC)CC(OC2CC(O)C(OC(N)=O)C(C)O2)[C@@H]1C` (some centres undefined), the GI50 with A498 is 8.99 µM (inactive); with A549, < 0.01 µM (active); with EKVX it was < 0.01 µM (active); in the assay on HCT-15 it was less than 0.01 µM; in the assay on HOP-62, < 0.01 µM (active); with IGROV-1 it was < 0.01 µM (active). In addition, the GI50 in the assay on K562, in the assay on M14, with NCI-H460, with OVCAR-8, in the assay with RPMI-8226 and with SF-268 was < 0.01 µM (active) throughout. Moreover, the GI50 with SF-295 is < 0.01 µM (active); in the assay on SK-MEL-2, < 0.01 µM (active); in the assay on SN12C, 0.589 µM (active); in the assay on SR it was < 0.01 µM (active); in the assay on TK-10, 8.79 µM (inactive); in the assay with U-251, < 0.01 µM (active). Moreover, in the assay on UACC-62, the GI50 was < 0.01 µM (active).
Turning to `N#CC(c1ccc(O)cc1)N1CCN(C(C#N)c2ccc(O)cc2)CC1` (centres undefined), the GI50 in the assay with A498 is > 100 µM (inactive); in the assay with A549 it was 99.3 µM (inactive); in the assay on EKVX, 35.7 µM (inactive); with HCT-15, 97.3 µM; in the assay on HOP-62 it was 20.2 µM (inactive); with IGROV-1 it was 51.1 µM (inactive). The GI50 with K562 is > 100 µM (inactive); in the assay on M14, > 100 µM (inactive); in the assay with OVCAR-4, > 100 µM (inactive); in the assay with OVCAR-8, 24.3 µM (inactive); in the assay with RPMI-8226 it was > 100 µM (inactive); with SF-268 it was 24.5 µM (inactive). Moreover, the GI50 in the assay on SF-295 was 38.3 µM (inactive); in the assay on SK-MEL-2 it was 68.2 µM (inactive); in the assay on SN12C, > 87.1 µM (inactive); with SR, > 100 µM (inactive); in the assay with TK-10, > 100 µM (inactive); with U-251, 22.3 µM (inactive). In the assay with UACC-62, the GI50 is 64.1 µM (inactive).
As for `O=S(=O)(O)c1ccc2c(/N=N/c3ccccc3Cl)c(O)ccc2c1`, the GI50 in the assay with A498 was > 100 µM (inactive); with A549, > 100 µM (inactive); with EKVX it was > 100 µM (inactive); in the assay with HCT-15 it was more than 100 µM; in the assay on HOP-62, > 100 µM (inactive); with IGROV-1 it was > 100 µM (inactive). Further, the GI50 with K562, in the assay on M14, in the assay with OVCAR-4, with OVCAR-8, in the assay with RPMI-8226 and in the assay with SF-268 was > 100 µM (inactive) in each case. Further, the GI50 with SF-295, in the assay on SK-MEL-2, in the assay with SN12C, in the assay with SR, with TK-10 and in the assay on U-251 was > 100 µM (inactive) throughout. Also, the GI50 in the assay with UACC-62 was > 100 µM (inactive).
For the compound `CC(C)[C@H]1NC(=O)[C@H]2N=C(S[C@H]2C)[C@@H]2CCCN2C(=O)[C@H](Cc2ccccc2)NC(=O)[C@@H]2CSC(=N2)[C@@H](Cc2ccccc2)NC(=O)[C@@H]2CSC1=N2`, the GI50 with A498 was 19.2 µM (inactive); in the assay on A549, 17.3 µM (inactive); with EKVX, 27.5 µM (inactive); in the assay with HCT-15, 25.3 µM; with HOP-62, > 50 µM (inactive); in the assay with IGROV-1, 29 µM (inactive). Also, the GI50 with K562 is 4.71 µM (inactive); in the assay on M14, 25.7 µM (inactive); in the assay on OVCAR-4, 10.9 µM (inactive); with OVCAR-8, 33.6 µM (inactive); in the assay on RPMI-8226 it was 7.62 µM (inactive); with SF-268 it was 45.6 µM (inactive). Further, the GI50 in the assay on SF-295 is 30.3 µM (inactive); in the assay with SK-MEL-2, 18.3 µM (inactive); in the assay on SN12C, 40.2 µM (inactive); in the assay with SR, 5.65 µM (inactive); in the assay on TK-10, 21.7 µM (inactive); in the assay with U-251, 14.9 µM (inactive). Besides, the GI50 in the assay on UACC-62 was 29.6 µM (inactive).
For `CCOc1ccc(C(c2c(O)c3ccccc3oc2=O)c2c(O)c3ccccc3oc2=O)cc1`, the GI50 in the assay on A498 was 36.1 µM (inactive); in the assay with A549, 69.8 µM (inactive); in the assay on EKVX, 80.4 µM (inactive); in the assay with HCT-15, 65.5 µM; in the assay with HOP-62, 61.5 µM (inactive); in the assay with IGROV-1, > 100 µM (inactive). The GI50 with K562 is 53.8 µM (inactive); in the assay with M14, 42.3 µM (inactive); in the assay on OVCAR-4 it was > 100 µM (inactive); in the assay with OVCAR-8, 43.9 µM (inactive); in the assay on RPMI-8226, 32.2 µM (inactive); in the assay with SF-268, 44.5 µM (inactive). The GI50 in the assay with SF-295 was > 100 µM (inactive); in the assay on SK-MEL-2 it was 24.1 µM (inactive); in the assay on SN12C, 43.8 µM (inactive); in the assay with SR it was 26 µM (inactive); in the assay on TK-10, 49.5 µM (inactive); in the assay with U-251, 32.7 µM (inactive). Also, the GI50 with UACC-62 was 38.7 µM (inactive).
`[C-]#[N+]C(C)(C)C[C@H]1CC(C)C2CCC(C)C3([N+]#[C-])CCC(=C)C1[C@H]23` (some centres undefined): the GI50 is 7.96 µM (inactive) with A498; 1.58 µM (inactive) with A549; 6.55 µM (inactive) with EKVX; 2.55 µM (inactive) with HOP-62; 1.34 µM (inactive) in the assay with IGROV-1; 0.327 µM (active) in the assay on K562. In addition, the GI50 in the assay on M14 was 1.95 µM (inactive); with OVCAR-4 it was 0.234 µM (active); in the assay on OVCAR-8, 0.227 µM (active); with SF-268 it was 0.308 µM (active); in the assay with SF-295 it was 0.887 µM (active); in the assay with SK-MEL-2, 0.753 µM (active). Also, the GI50 was 0.195 µM (active) with SN12C; 0.418 µM (active) in the assay on SR; 5.62 µM (inactive) with TK-10; 1.51 µM (inactive) with U-251; 2.82 µM (inactive) with UACC-62.
Turning to `CC(=O)NC1C(OCc2ccccc2)OC(CO)C(O)C1OC(C)C(=O)NC(C(=O)N[C@@H](CCC(=O)NCCNCCNc1c2ccccc2nc2cccc([N+](=O)[O-])c12)C(N)=O)C(C)C` (some centres undefined), the GI50 is 41.8 µM (inactive) with A498; 14.8 µM (inactive) in the assay on A549; 24.7 µM with HCT-15; 30.1 µM (inactive) in the assay on HOP-62; 33.6 µM (inactive) with IGROV-1; 0.0158 µM (active) in the assay on K562. For the same compound, the GI50 in the assay on M14 is 15.4 µM (inactive); in the assay with NCI-H460, 14.7 µM (inactive); in the assay with OVCAR-4, 29.2 µM (inactive); in the assay on OVCAR-8, 19.6 µM (inactive); with RPMI-8226, 17.9 µM (inactive); with SF-268 it was 36.1 µM (inactive). Besides, the GI50 was 48.5 µM (inactive) with SF-295; 20 µM (inactive) with SK-MEL-2; 20.9 µM (inactive) in the assay on SN12C; 1.78 µM (inactive) in the assay with SR; 37.8 µM (inactive) in the assay on TK-10; 65.8 µM (inactive) with U-251.
`CN1Cc2ccccc2S(=O)(=O)n2cccc2C1=O`: the GI50 is > 100 µM (inactive) in the assay with A498; > 100 µM (inactive) in the assay with A549; > 100 µM (inactive) with EKVX; more than 100 µM with HCT-15; > 100 µM (inactive) in the assay on HOP-62; > 100 µM (inactive) in the assay with IGROV-1. The GI50 in the assay with K562, with NCI-H460, in the assay with OVCAR-4, in the assay with RPMI-8226, with SF-295 and with SK-MEL-2 was > 100 µM (inactive) each time. In addition, the GI50 is > 100 µM (inactive) in the assay with SN12C; 8.41 µM (inactive) in the assay with SR; > 100 µM (inactive) in the assay on TK-10; > 100 µM (inactive) in the assay on U-251; > 100 µM (inactive) in the assay on UACC-62.
